Laboratory results as given in patent publication US11312719B2, “9-substituted amino triazolo quinazoline derivatives as adenosine receptor antagonists, pharmaceutical compositions and their use” (Merck Sharp & Dohme Corp., priority 2018, dated 2022).

Tests used:
[1] = biological target: human A2B receptors (Homo sapiens (Human), UniProt P29275); assay: A2B antagonism in cAMP cell-based assay (LANCE cAMP, HEK293); conditions: HEK293 cells expressing human A2B receptor
Protocol: (§1) Measurement of A2A and A2B Antagonism in cAMP Cell-Based Assay
(§2) The ability of compounds to antagonize human A2A and A2B adenosine receptors was determined using a kit to measure changes in intracellular cyclic AMP levels (LANCE cAMP 384 Kit, Perkin Elmer, Cat. No. AD0264). HEK293 cells recombinantly expressing either human A2A or A2B receptors, previously frozen in Recovery Medium (Life Technologies, Cat. No. 12648-010) were thawed and diluted into stimulation buffer (HBSS (Hyclone SH 30268.01), 5 mM HEPES (Gibco 15630-106), 200 nM rolipram (Tocris, Cat. No. 0905), and 1.5% (V/v) BSA stabilizer (kit component). The cell suspension was centrifuged at 200×g for 10 min and then resuspended in stimulation buffer, supplemented with a 1:10 000 dilution of Alexa Fluor 647 anti-cAMP antibody, to a density of 6.0×10^5 cells/mL. A Labcyte Echo 550 acoustic dispenser was used to transfer up to 25 nL of test compound dissolved in DMSO into the wells of a dry Optiplate-384 plate (Perkin Elmer, Cat. No. 6008289). All subsequent liquid additions were performed using a multichannel pipettor. Next, 5 μL of the cell suspension was added to the wells of the Optiplate-384 and incubated for 30 min. at 37° C. and 5% CO2 in a humidified environment. After this time 5 μL of either 300 nM or 600 nM adenosine (Sigma Cat. No. A9251) for A2A and A2B respectively was added and incubated for 30 minutes at 37° C. and 5% CO2 in a humidified environment. At this time detection mix was prepared by combining the LANCE Eu-W8044 labeled streptavidin and Biotin-cAMP in detection buffer according to the manufacturers protocol. 10 μL of the detection mix was added to each well of the Optiplate-384 which was covered with a plate seal and incubated under ambient conditions for 2 hours prior to reading the plate using an Envision (Perkin Elmer, Waltham, Mass.) multimode plate reader. Data was normalized by defining minimal effect as stimulation in the presence of 0.25% (v/v) DMSO and maximal effect as stimulation in the presence of 1 μM ZM241385 (Cayman, Cat. No. 1036). Curve fitting of the percent effect data versus the log of compound concentration used a 4-parameter concentration response curve fitting algorithm to calculate IC50 values. Compound concentrations tested were 10,000, 3,333, 1,111, 370.4, 123.4, 41.2, 13.7, 4.6, 1.5 and 0.5 nM with 0.25% residual DMSO.

[2] = biological target: human A2A receptors (Homo sapiens (Human), UniProt P29274); assay: A2A antagonism in cAMP cell-based assay (LANCE cAMP, HEK293); conditions: HEK293 cells expressing human A2A receptor
Protocol: as §1, §2

Chain of human A2A receptors (P29274 whole entry): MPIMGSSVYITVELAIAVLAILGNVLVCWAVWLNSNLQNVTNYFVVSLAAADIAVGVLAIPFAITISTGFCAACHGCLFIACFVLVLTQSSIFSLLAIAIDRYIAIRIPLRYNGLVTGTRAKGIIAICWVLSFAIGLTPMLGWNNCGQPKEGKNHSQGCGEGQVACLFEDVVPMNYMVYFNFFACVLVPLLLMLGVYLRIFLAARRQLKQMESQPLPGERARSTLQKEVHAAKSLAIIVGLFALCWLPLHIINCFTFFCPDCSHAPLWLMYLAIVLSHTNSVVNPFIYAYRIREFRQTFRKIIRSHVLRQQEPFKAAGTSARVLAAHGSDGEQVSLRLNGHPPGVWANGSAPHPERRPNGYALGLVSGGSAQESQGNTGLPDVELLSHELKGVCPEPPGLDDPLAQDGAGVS
Chain of human A2B receptors (P29275 whole entry): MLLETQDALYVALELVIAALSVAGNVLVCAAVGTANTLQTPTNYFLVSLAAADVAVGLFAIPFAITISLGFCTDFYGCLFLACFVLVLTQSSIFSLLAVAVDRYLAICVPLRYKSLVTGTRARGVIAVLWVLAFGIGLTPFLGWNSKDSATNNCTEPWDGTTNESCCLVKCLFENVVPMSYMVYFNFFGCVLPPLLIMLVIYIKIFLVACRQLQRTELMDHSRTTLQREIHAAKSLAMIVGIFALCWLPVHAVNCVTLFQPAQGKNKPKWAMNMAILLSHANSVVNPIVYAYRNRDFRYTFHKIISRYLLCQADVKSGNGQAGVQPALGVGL

Row | IC50 [1] | IC50 [2] | A2B cAMP % Inh. @10000 nM ([1]; at 10000 nM) | Compound
1 | 10.2 nM | 0.9 nM |  | COc1cc(F)cc2c1nc(N)n1nc(C3CC(C)CN(c4cn(C(C)(C)CO)nc4C)C3)nc21 (single isomer, unassigned) [Example 176, 2-(4-((3S,5R or 3R,5S)-3-(5-amino-9-fluoro-7-methoxy-[1,2,4]triazolo[1,5-c]quinazolin-2-yl)-5-methylpiperidin-1-yl)-3-methyl-1H-pyrazol-1-yl)-2-methylpropan-1-ol]
2 | 648 nM | 8.7 nM |  | COc1cc(F)cc2c1nc(N)n1nc(C3CC(C)CN(c4cnn(CC(C)(C)O)c4)C3)nc21 (single isomer, unassigned) [Example 160, 1-(4-((3S,5R or 3R,5S)-3-(5-amino-9-fluoro-7-methoxy-[1,2,4]triazolo[1,5-c]quinazolin-2-yl)-5-methylpiperidin-1-yl)-1H-pyrazol-1-yl)-2-methylpropan-2-ol]
3 | > 10000 nM | 331 nM |  | Cc1nn(C(C)C(C)O)cc1N1CC(C)CC(c2nc3c4cc(F)cc(F)c4nc(N)n3n2)C1 (single isomer, unassigned) [Example 213, (2R,3R or 2S,3S)-3-(4-((3R,5S or 3S,5R)-3-(5-amino-7,9-difluoro-[1,2,4]triazolo[1,5-c]quinazolin-2-yl)-5-methylpiperidin-1-yl)-3-methyl-1H-pyrazol-1-yl)butan-2-ol]
4 | 5780 nM | 236 nM |  | Cc1c(N2CC(C)CC(c3nc4c5cc(F)cc(F)c5nc(N)n4n3)C2)cnn1C(C)C(C)O (single isomer, unassigned) [Example 218, (2R,3R or 2S,3S)-3-(4-((3S,5R or 3R,5S)-3-(5-amino-7,9-difluoro-[1,2,4]triazolo[1,5-c]quinazolin-2-yl)-5-methylpiperidin-1-yl)-5-methyl-1H-pyrazol-1-yl)butan-2-ol]
5 | 49.8 nM | 1.1 nM |  | COc1cc(F)cc2c1nc(N)n1nc([C@@H]3CCCN(c4cnn(C(C)C(C)O)c4)C3)nc21 (single isomer, unassigned) [Example 185, (2S,3S or 2R,3R)-3-(4-((R)-3-(5-amino-9-fluoro-7-methoxy-[1,2,4]triazolo[1,5-c]quinazolin-2-yl)piperidin-1-yl)-1H-pyrazol-1-yl)butan-2-ol]
6 | 387 nM | 39.5 nM |  | COc1cc2nc(N)n3nc(C4CCC(C)N(c5cnn(C(C)(CO)CO)c5)C4)nc3c2cc1F (single isomer, unassigned) [Example 251, 2-(4-((2R,5S or 2S,5R)-5-(5-amino-9-fluoro-8-methoxy-[1,2,4]triazolo[1,5-c]quinazolin-2-yl)-2-methylpiperidin-1-yl)-1H-pyrazol-1-yl)-2-methylpropane-1,3-diol]
7 | 5310 nM | 36 nM |  | CC1CC(c2nc3c4cc(F)cc(F)c4nc(N)n3n2)CN(c2cnn(CC(C)(C)O)c2)C1 (single isomer, unassigned) [Example 163, 1-(4-((3R,5S or 3S,5R)-3-(5-amino-7,9-difluoro-[1,2,4]triazolo[1,5-c]quinazolin-2-yl)-5-methylpiperidin-1-yl)-1H-pyrazol-1-yl)-2-methylpropan-2-ol]
8 |  | 60.5 nM | 14% Inh. | COc1cc2nc(N)n3nc(C4CC(C)CN(c5cnn(C(C)(C)CO)c5)C4)nc3c2cc1F (single isomer, unassigned) [Example 172, 2-(4-((3S,5R or 3R,5S)-3-(5-amino-9-fluoro-8-methoxy-[1,2,4]triazolo[1,5-c]quinazolin-2-yl)-5-methylpiperidin-1-yl)-1H-pyrazol-1-yl)-2-methylpropan-1-ol]
9 | 14.1 nM | 0.8 nM |  | COc1cc2nc(N)n3nc(C4CC(C)CN(c5cn(C(C)(C)CO)nc5C)C4)nc3c2cc1F (single isomer, unassigned) [Example 170, 2-(4-((3S,5R or 3R,5S)-3-(5-amino-9-fluoro-8-methoxy-[1,2,4]triazolo[1,5-c]quinazolin-2-yl)-5-methylpiperidin-1-yl)-3-methyl-1H-pyrazol-1-yl)-2-methylpropan-1-ol]
10 | 5.6 nM | 0.7 nM |  | CC(O)C(C)n1cc(N2CC(c3nc4c5cc(F)cc(F)c5nc(N)n4n3)CCC2C)cn1 (single isomer, unassigned) [Example 233, (2R,3R or 2S,3S)-3-(4-((2S,5R or 2R,5S)-5-(5-amino-7,9-difluoro-[1,2,4]triazolo[1,5-c]quinazolin-2-yl)-2-methylpiperidin-1-yl)-1H-pyrazol-1-yl)butan-2-ol]
11 | 160 nM | 1 nM |  | Cc1c(N2CC(C)CC(c3nc4c5cc(F)cc(F)c5nc(N)n4n3)C2)cnn1C(C)C(C)O (single isomer, unassigned) [Example 216, (2S,3S or 2R,3R)-3-(4-((3R,5S or 3S,5R)-3-(5-amino-7,9-difluoro-[1,2,4]triazolo[1,5-c]quinazolin-2-yl)-5-methylpiperidin-1-yl)-5-methyl-1H-pyrazol-1-yl)butan-2-ol]

Second part, the molecule before the results:

Row | Compound | IC50 [1] | IC50 [2] | A2B cAMP % Inh. @10000 nM ([1]; at 10000 nM)
12 | CC1CC(c2nc3c4cc(F)cc(F)c4nc(N)n3n2)CN(c2cnn(C(C)(C)CO)c2)C1 (single isomer, unassigned) [Example 179] | 335 nM | 4 nM | 
13 | COc1cc2nc(N)n3nc(C4CCC(C)N(c5cnn(C(C)(C)C(C)O)c5)C4)nc3c2cc1F (single isomer, unassigned) [Example 267, (S or R)-3-(4-((2R,5S or 2S,5R)-5-(5-amino-9-fluoro-8-methoxy-[1,2,4]triazolo[1,5-c]quinazolin-2-yl)-2-methylpiperidin-1-yl)-1H-pyrazol-1-yl)-3-methylbutan-2-ol] | 1210 nM | 175 nM | 
14 | COc1cc(F)cc2c1nc(N)n1nc(C3CC(C)CN(c4cnn(C(C)(C)CO)c4)C3)nc21 (single isomer, unassigned) [Example 165, 2-(4-((3R,5S or 3S,5R)-3-(5-amino-9-fluoro-7-methoxy-[1,2,4]triazolo[1,5-c]quinazolin-2-yl)-5-methylpiperidin-1-yl)-1H-pyrazol-1-yl)-2-methylpropan-1-ol] | 6.4 nM | 0.8 nM | 
15 | CC1CCC(c2nc3c4cc(F)cc(F)c4nc(N)n3n2)CN1c1cnn(CC(C)(O)CO)c1 (single isomer, unassigned) [Example 259, (S or R)-2-(4-((2R,5S or 2S,5R)-5-(5-amino-7,9-difluoro-[1,2,4]triazolo[1,5-c]quinazolin-2-yl)-2-methylpiperidin-1-yl)-1H-pyrazol-1-yl)-2-methylpropane-1,2-diol] | 11.8 nM | 2.3 nM | 
16 | COc1cc2nc(N)n3nc([C@@H]4CC[C@H](C)N(c5cnn([C@H](C)[C@@H](C)O)c5)C4)nc3c2cc1F (single isomer, unassigned) [Example 231, (2R,3R or 2S,3S)-3-(4-((2S,5R or 2R,5S)-5-(5-amino-9-fluoro-8-methoxy-[1,2,4]triazolo[1,5-c]quinazolin-2-yl)-2-methylpiperidin-1-yl)-1H-pyrazol-1-yl)butan-2-ol] | 3840 nM | 122 nM | 
17 | COc1cc2nc(N)n3nc([C@@H]4C[C@H](C)CN(c5cn([C@H](C)[C@@H](C)O)nc5C)C4)nc3c2cc1F (single isomer, unassigned) [Example 209, (2R,3R or 2S,3S)-3-(4-((3R,5S or 3S,5R)-3-(5-amino-9-fluoro-8-methoxy-[1,2,4]triazolo[1,5-c]quinazolin-2-yl)-5-methylpiperidin-1-yl)-3-methyl-1H-pyrazol-1-yl)butan-2-ol] | 635 nM | 0.7 nM | 
18 | COc1cc2nc(N)n3nc([C@@H]4CCCN(c5cnn(C(C)C(C)O)c5C)C4)nc3c2cc1F (single isomer, unassigned) [Example 195, (2S,3S or 2R,3R)-3-(4-((R)-3-(5-amino-9-fluoro-8-methoxy-[1,2,4]triazolo[1,5-c]quinazolin-2-yl)piperidin-1-yl)-5-methyl-1H-pyrazol-1-yl)butan-2-ol] | 389 nM | 3.4 nM | 
19 | CC(O)C(C)n1cc(N2CC(c3nc4c5cc(F)cc(F)c5nc(N)n4n3)CCC2C)cn1 (single isomer, unassigned) [Example 235, (2S,3S or 2R,3R)-3-(4-((2R,5S or 2S,5R)-5-(5-amino-7,9-difluoro-[1,2,4]triazolo[1,5-c]quinazolin-2-yl)-2-methylpiperidin-1-yl)-1H-pyrazol-1-yl)butan-2-ol] | 4450 nM | 439 nM | 
